Assay results as given in article PMC10447463, “Data-mining unveils structure–property–activity correlation of viral infectivity enhancing self-assembling peptides” (Nature Communications, 2023).
Read-outs that look alike come from different tables or passages of the source.

How the values were obtained:
[1] = test system: HIV-1 infection of TZM-bl cells; test: HIV-1 infectivity enhancement assay, β-galactosidase luminescence; type: cell-based; details: for Rel-EFC: infection relative to EF-C (QCKIKQIINMWQ = 1); for Log10 Infection Rel EFC: log10 of infection relative to EF-C; for Log Infectivity: Log10 infection relative to EF-C, asymmetric std dev errors; for Log Infectivity / Abs. Inf.: TZM-bl cells; for Log10 Infection Rel EF-C: HIV-1 infection of TZM-bl cells; for Abs. Infection at 0.26 µM / Infect 1 0.26 µM / Infect 2 0.26 µM / Infect 3 0.26 µM: peptide 0.26 µM; for Abs. Infection at 0.26 µM / Abs. Infection at 1.3 µM: mean of n = 3, Figure 4A; for Infect 1 0.26 µM / Infect 1 .3 µM: replicate 1, absolute infection signal; for Infect 1 0.26 µM / Infect 2 0.26 µM / Infect 3 0.26 µM / Infect 1 .3 µM / Infect 2 1.3µM / Infect 3 1.3 µM: Figure 4A; for Infect 2 0.26 µM / Infect 2 1.3µM: replicate 2, absolute infection signal; for Infect 3 0.26 µM / Infect 3 1.3 µM: replicate 3, absolute infection signal; for Abs. Infection at 1.3 µM / Infect 1 .3 µM / Infect 2 1.3µM / Infect 3 1.3 µM: peptide 1.3 µM; for Log10 of Rel to EFC (Feb2021): Log10 of infection relative to EF-C; for Abs. Inf.: absolute HIV-1 infection signal, β-galactosidase luminescence
[2] = Zeta-potential measurement; type: physicochemical
Procedure, shortened: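 PBS pH 7.4, 1 mg/mL peptide (DMSO stock), 1 d RT aggregation; diluted in 1 mM KCl pre-read; mobility → zeta (Smoluchowski); n = 3, 2 expts averaged.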

[3] = Turbidity, derived count rate of scattered light; type: physicochemical; details: for Count Rate: derived count rate of scattered light (turbidity); for Log10 Count Rate: turbidity, derived count rate of scattered light, data of Figure 2D
[4] = β-sheet content by ATR-FT-IR; type: physicochemical; details: for b -sheet / %: Fig. S7 panel A, β-sheet content by ATR-FT-IR
Procedure, shortened: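 ATR FT-IR, diamond crystal, 64 scans, 2 cm^-1, on freeze-dried 1 mg/mL PNF; β-sheet per prior calculation. Fluorescamine CR: 3 kDa filter, DMSO redissolution, 20 min RT, ex 365/em 470 nm; values as n-fold enhancement over DMSO (set to 1).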

[5] = Turbidity, derived count rate of scattered light; type: physicochemical; details: for Count Rate / kcps: derived count rate of scattered light at 633 nm, 173°, from zeta-potential measurement, 0.1 mg/mL in 1 mM KCl after 1 d at 1 mg/mL in PBS, turbidity / microscopic aggregation, mean of triplicate
Procedure, shortened: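 One-day room-temperature aggregation at 1 mg/mL in PBS (pH 7.4) preceded measurement; samples then went into 1 mM KCl. Triplicates per sample, two independent experiments averaged.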

[6] = Fig. S7 panel A (plotted against β-sheet content)
[7] = Fig. S7 panel B (plotted against CR), rounded to two decimals
[8] = Log10 of infection rate relative to EF-C, Figure 3A source data
[9] = infection rate relative to EF-C, log10, data of Figure 2D
[10] = infection rate relative to EF-C, log10, source data of Figure 2C
[11] = zeta potential of peptide assemblies
[12] = zeta-potential of peptide, source data of Figure 2C
[13] = zeta-potential of the peptide assemblies, mean, Figure 3A source data
[14] = Log10 of derived count rate of scattered light (turbidity)
[15] = log10 of derived count rate of scattered light (turbidity)
[16] = turbidity, Log10 of derived count rate of scattered light, Figure 3A source data

Substance	Rel-EFC ([1]; 1.3 µM peptide)	Log10 Infection Rel EFC ([1]; 1.3 µM peptide)	Log Infectivity [1, 6]	Log Infectivity [1, 7]	Log10 Infection Rel EF-C [1, 8]	Log10 Infection Rel EF-C [1, 9]	Log10 Infection Rel EF-C [1, 10]	Zeta-Pot. [2, 11]	Zeta-Potential / mV [2, 12] [mV]	Zeta-Potential / mV [2, 13] [mV]	Count Rate [3]	Log10 Count Rate [3]	b -sheet / % [4] [%]	Log10 Count Rate [5, 14]	Count Rate / kcps [5] [kcps]	Log10 Count Rate [5, 15]	Log10 Count Rate [5, 16]	Abs. Inf. [1]	Zeta-Pot. [2]	other results
CSISIQI	0,06	-1,25	-1.252	-1.25	-1.25	-1.252	-1.252	-25.93	-26.07	-25.93	10241.1	4.01	58.57	4.01	10241	4.01	4.01			Abs. Infection at 0.26 µM [1]: 1390; Infect 1 0.26 µM [1]: 1340; Infect 2 0.26 µM [1]: 1160; Infect 3 0.26 µM [1]: 1670; Abs. Infection at 1.3 µM [1]: 3087; Infect 1 .3 µM [1]: 3310; Infect 2 1.3µM [1]: 2600; Infect 3 1.3 µM [1]: 3350; Log10 Count Rate ([5]; logarithm of count rate in kcps): 4.01
CSISIQINM	0,2	-0,7	-0.7027	-0.7	-0.7	-0.7027	-0.7027	-19.4	-21.18	-19.4	3291	3.517	55.93	3.517	3291	3.517	3.517			Log10 of Rel to EFC (Feb2021) ([1]; all peptides of FigS16): -0.7
EIEIQINM	0,04	-1,44	-1.44	-1.44	-1.44	-1.44	-1.44		-21.58	-23.33	134	2.127	53.87	2.127	134	2.127	2.127	203.3	-23.33	Abs. Infection at 0.26 µM [1]: 203.3; Infect 1 0.26 µM [1]: 203.33; Infect 2 0.26 µM [1]: 123.33; Infect 3 0.26 µM [1]: 283.33; Abs. Infection at 1.3 µM [1]: 203.3; Infect 1 .3 µM [1]: 253.33; Infect 2 1.3µM [1]: 173.33; Infect 3 1.3 µM [1]: 183.33
EIEIQINMWQ	0,13	-0,88	-0.881	-0.88	-0.88	-0.881	-0.881		-19.93	-19.13	1264	3.102	53.91	3.102	1264	3.102	3.102	2137	-19.13	infectivity enhancement relative to EF-C ([1]; 1.3 µM peptide): 13%; Log10 of Rel to EFC (Feb2021) ([1]; all peptides of FigS16): -0.88; Log10 of Rel to EFC (Feb2021) ([1]; second listing, peptides with TEM 2cat 0): -0.88; beta sheet ([4]; peptides with TEM 2cat 0): 54; Zeta Count Rate ([5]; peptides with TEM 2cat 0): 1264 kcp
EIKIQINM	0,1	-1	-1.001	-1	-1	-1.001	-1.001		-20.62	-22.33	2816	3.45	48.03	3.45	2816	3.45	3.45	3607	-22.33	
HHHHKAKAKAKAWWWW	0,09	-1,05	-1.048		-1.05	-1.048	-1.048		12.25	17.4	658.9	2.8188	40.26	2.8188	659	2.8188	2.8188	3233	17.4	
HHHHKAKAKAKAYYYY	0,01	-1,88	-1.883		-1.88	-1.883	-1.883	7.03	4.787	7.03	240.9	2.382	44.29	2.382	241	2.382	2.382			
